Assay results: ChEMBL document CHEMBL3877294, “Discovery of Ruzasvir (MK-8408): A Potent, Pan-Genotype HCV NS5A Inhibitor with Optimized Activity against Common Resistance-Associated Polymorphisms” (J Med Chem, 2017)

How the values were obtained:
[1] = test system: Hepatitis C virus subtype 1a; experiment: Selectivity ratio for EC90 for HCV genotype-1a NS5A Y93H mutant to EC90 for HCV genotype-1a NS5A
Huh-7 [2] = experiment: Inhibition of HCV genotype-2b NS5A harboring methionine at position 31 infected in human HuH7 cells by luciferase reporter gene assay; type: cell-based; conditions: Hepatitis C virus subtype 2b
[3] = test system: T1, Nonstructural protein 5A (Hepatitis C virus), Q5L478 [Y93H]; experiment: Inhibition of HCV genotype-1a NS5A Y93H mutant infected in human HuH7 cells by luciferase reporter gene assay; type: cell-based; conditions: Hepatitis C virus subtype 1a; Huh-7
T1 sequence (whole entry): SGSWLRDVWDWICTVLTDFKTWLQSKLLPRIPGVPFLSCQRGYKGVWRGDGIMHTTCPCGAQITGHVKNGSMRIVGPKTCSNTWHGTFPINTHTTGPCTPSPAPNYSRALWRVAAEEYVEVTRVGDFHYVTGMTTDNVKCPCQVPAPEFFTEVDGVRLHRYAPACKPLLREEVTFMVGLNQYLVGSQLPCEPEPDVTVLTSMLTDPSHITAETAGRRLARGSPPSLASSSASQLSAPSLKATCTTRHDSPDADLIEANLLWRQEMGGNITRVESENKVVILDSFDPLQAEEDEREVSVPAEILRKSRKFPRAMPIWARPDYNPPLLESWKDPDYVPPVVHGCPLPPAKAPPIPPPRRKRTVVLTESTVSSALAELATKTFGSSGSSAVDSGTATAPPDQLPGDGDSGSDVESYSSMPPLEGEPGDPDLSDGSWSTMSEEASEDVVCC

[4] = Selectivity ratio for EC90 for HCV genotype-2b NS5A harboring methionine at position 31 to EC90 for HCV genotype-1a NS5A
Huh-7 [5] = experiment: Inhibition of HCV genotype-1a NS5A infected in human HuH7 cells by luciferase reporter gene assay; type: cell-based; conditions: Hepatitis C virus subtype 1a
[6] = test system: Nonstructural protein 5A (Hepatitis C virus), Q5L478 [UNDEFINED MUTATION]; experiment: Inhibition of HCV genotype-1a NS5A L31V mutant infected in human HuH7 cells by luciferase reporter gene assay; type: cell-based; conditions: Hepatitis C virus subtype 1a; Huh-7
Huh-7 [7] = experiment: Inhibition of HCV genotype-4a NS5A infected in human HuH7 cells by luciferase reporter gene assay; type: cell-based; conditions: Hepatitis C virus subtype 4a
Huh-7 [8] = experiment: Inhibition of HCV genotype-3a NS5A infected in human HuH7 cells by luciferase reporter gene assay; type: cell-based; conditions: Hepatitis C virus subtype 3a

| SMILES | Selectivity ratio [1] | EC90 (Huh-7 [2]) [nM] | EC90 [3] [nM] | Selectivity ratio [4] | EC90 (Huh-7 [5]) [pM] | EC90 [6] [nM] | EC90 (Huh-7 [7]) [pM] | EC90 (Huh-7 [8]) [pM] |
| --- | --- | --- | --- | --- | --- | --- | --- | --- |
| COC(=O)N[C@H](C(=O)N1CCC[C@H]1c1ncc(-c2ccc3c(c2)O[C@@H](c2ccc(C4CC4)cc2)n2c-3cc3cc(-c4cnc([C@@H]5CCCN5C(=O)[C@@H](NC(=O)OC)C(C)C)[nH]4)ccc32)[nH]1)C(C)C | 1900 | 1 | 8 | 300 | 4 |  |  |  |
| COC(=O)N[C@H](C(=O)N1CCC[C@H]1c1ncc(-c2ccc3c(c2)OC(c2ccc(Cl)s2)n2c-3cc3cc(-c4cnc([C@@H]5CCCN5C(=O)[C@@H](NC(=O)OC)C(C)C)[nH]4)ccc32)[nH]1)C(C)C (mixture of isomers) | 200 | 1 | 4 | 50 | 20 |  |  |  |
| CCc1ccc([C@@H]2Oc3cc(-c4cnc([C@@H]5CCCN5C(=O)[C@@H](NC(=O)OC)C(C)C)[nH]4)ccc3-c3cc4cc(-c5cnc([C@@H]6CCCN6C(=O)[C@@H](NC(=O)OC)C(C)C)[nH]5)ccc4n32)s1 | 680 | 0.25 | 3.4 | 50 | 5 |  |  |  |
| CCOc1cccc([C@@H]2Oc3cc(-c4cnc([C@@H]5CCCN5C(=O)[C@@H](NC(=O)OC)C(C)C)[nH]4)cc(F)c3-c3cc4cc(-c5cnc([C@@H]6CCCN6C(=O)[C@@H](NC(=O)OC)C(C)C)[nH]5)ccc4n32)c1 | 200 | 8 | 2 | 800 | 10 |  |  |  |
| COCc1ccc(C2Oc3cc(-c4cnc([C@@H]5CCCN5C(=O)[C@@H](NC(=O)OC)C(C)C)[nH]4)cc(F)c3-c3cc4cc(-c5cnc([C@@H]6CCCN6C(=O)[C@@H](NC(=O)OC)C(C)C)[nH]5)ccc4n32)s1 (some centres not stated) |  | 0.54 | 0.22 |  | 5 | 0.049 | 9 | 16 |
| COC(=O)N[C@H](C(=O)N1CCC[C@H]1c1ncc(-c2cc(F)c3c(c2)OC(c2ccc(C4CC4(F)F)s2)n2c-3cc3cc(-c4cnc([C@@H]5CCCN5C(=O)[C@@H](NC(=O)OC)C(C)C)[nH]4)ccc32)[nH]1)C(C)C (some centres not stated) |  | 0.43 | 0.084 |  | 2 | 0.02 | 3 | 7 |
| COC(=O)N[C@H](C(=O)N1CCC[C@H]1c1ncc(-c2cc(F)c3c(c2)OC(c2cnc(C4(C)CC4)s2)n2c-3cc3cc(-c4cnc([C@@H]5C[C@H]6C[C@H]6N5C(=O)[C@@H](NC(=O)OC)C(C)C)[nH]4)ccc32)[nH]1)C(C)C (some centres not stated) |  | 0.18 | 0.02 |  | 5 | 0.007 | 5 | 9 |
| COC(=O)N[C@H](C(=O)N1CCC[C@H]1c1ncc(-c2cc(F)c3c(c2)OC(c2cnc(C(C)C)s2)n2c-3cc3cc(-c4cnc([C@@H]5C[C@H]6C[C@H]6N5C(=O)[C@@H](NC(=O)OC)C(C)C)[nH]4)ccc32)[nH]1)C(C)C (some centres not stated) |  | 0.23 | 0.028 |  | 3 | 0.008 | 6 | 6 |
| COC(=O)N[C@H](C(=O)N1CCC[C@H]1c1ncc(-c2cc(F)c3c(c2)OC(c2cnc(C4CC4)o2)n2c-3cc3cc(-c4cnc([C@@H]5CCCN5C(=O)[C@@H](NC(=O)OC)C(C)C)[nH]4)ccc32)[nH]1)C(C)C (some centres not stated) |  | 1.1 | 1.8 |  | 7 | 0.46 | 30 | 180 |
| COC(=O)N[C@H](C(=O)N1CCC[C@H]1c1ncc(-c2cc(F)c3c(c2)OC(c2cnc(C(F)F)s2)n2c-3cc3cc(-c4cnc([C@@H]5CCCN5C(=O)[C@@H](NC(=O)OC)C(C)C)[nH]4)ccc32)[nH]1)C(C)C (some centres not stated) |  | 0.069 | 0.056 |  | 2 | 0.003 | 2 | 4 |
| COC(=O)N[C@H](C(=O)N1CCC[C@H]1c1ncc(-c2cc(F)c3c(c2)OC(c2cnc(OC)s2)n2c-3cc3cc(-c4cnc([C@@H]5CCCN5C(=O)[C@@H](NC(=O)OC)C(C)C)[nH]4)ccc32)[nH]1)C(C)C (some centres not stated) |  | 0.068 | 0.035 |  | 2 | 0.015 | 4 | 7 |
| COC(=O)N[C@H](C(=O)N1CCC[C@H]1c1ncc(-c2cc(F)c3c(c2)O[C@@H](c2ccc4c(c2)OCCC4)n2c-3cc3cc(-c4cnc([C@@H]5CCCN5C(=O)[C@@H](NC(=O)OC)C(C)C)[nH]4)ccc32)[nH]1)C(C)C | 167 | 0.3 | 0.5 | 100 | 3 |  |  |  |
| COC(=O)N[C@H](C(=O)N1CCC[C@H]1c1ncc(-c2cc(F)c3c(c2)OC(c2ccc(C(=O)N(C)C)s2)n2c-3cc3cc(-c4cnc([C@@H]5CCCN5C(=O)[C@@H](NC(=O)OC)C(C)C)[nH]4)ccc32)[nH]1)C(C)C (some centres not stated) |  | 0.45 | 0.47 |  | 14 | 0.035 | 24 | 120 |
| COC(=O)N[C@H](C(=O)N1CCC[C@H]1c1ncc(-c2cc(F)c3c(c2)OC(c2ccc(C(F)F)s2)n2c-3cc3cc(-c4cnc([C@@H]5CCCN5C(=O)[C@@H](NC(=O)OC)C(C)C)[nH]4)ccc32)[nH]1)C(C)C (some centres not stated) |  | 0.26 | 0.14 |  | 2 | 0.016 | 5 | 7 |
| COC(=O)N[C@H](C(=O)N1CCC[C@H]1c1ncc(-c2cc(F)c3c(c2)OC(c2ccsc2)n2c-3cc3cc(-c4cnc([C@@H]5CCCN5C(=O)[C@@H](NC(=O)OC)C(C)C)[nH]4)ccc32)[nH]1)C(C)C (some centres not stated) |  | 3.7 | 0.59 |  | 2 | 0.13 | 10 | 13 |
| COC(=O)N[C@H](C(=O)N1CCC[C@H]1c1ncc(-c2cc(F)c3c(c2)OC(c2sccc2C2CC2)n2c-3cc3cc(-c4cnc([C@@H]5CCCN5C(=O)[C@@H](NC(=O)OC)C(C)C)[nH]4)ccc32)[nH]1)C(C)C (some centres not stated) |  | > 33 | 70 |  | 12 | 1.74 | 320 | 4700 |
| CCCc1ncc(C2Oc3cc(-c4cnc([C@@H]5CCCN5C(=O)[C@@H](NC(=O)OC)C(C)C)[nH]4)cc(F)c3-c3cc4cc(-c5cnc([C@@H]6C[C@H]7C[C@H]7N6C(=O)[C@@H](NC(=O)OC)C(C)C)[nH]5)ccc4n32)s1 (some centres not stated) |  | 0.14 | 0.021 |  | 5 | 0.013 | 12 | 9 |
| CCCc1ccc(C2Oc3cc(-c4cnc([C@@H]5CCCN5C(=O)[C@@H](NC(=O)OC)C(C)C)[nH]4)cc(F)c3-c3cc4cc(-c5cnc([C@@H]6CCCN6C(=O)[C@@H](NC(=O)OC)C(C)C)[nH]5)ccc4n32)s1 (some centres not stated) |  | 0.44 | 0.069 |  | 5 | 0.013 | 5 | 9 |
| CCOc1cccc([C@@H]2Oc3cc(-c4cnc([C@@H]5CCCN5C(=O)[C@@H](NC(=O)OC)C(C)C)[nH]4)ccc3-c3cc4cc(-c5cnc([C@@H]6CCCN6C(=O)[C@@H](NC(=O)OC)C(C)C)[nH]5)ccc4n32)c1 | 800 | 22 | 16 | 1100 | 20 |  |  |  |
| COC(=O)N[C@H](C(=O)N1CCC[C@H]1c1ncc(-c2cc(F)c3c(c2)OC(c2cnc(C(C)C)s2)n2c-3cc3cc(-c4cnc([C@@H]5CCCN5C(=O)[C@@H](NC(=O)OC)C(C)C)[nH]4)ccc32)[nH]1)C(C)C (some centres not stated) |  | 0.14 | 0.05 |  | 2 | 0.022 | 4 | 6 |
| COC(=O)N[C@H](C(=O)N1CCC[C@H]1c1ncc(-c2cc(F)c3c(c2)OC(c2ccc(C(F)(F)F)s2)n2c-3cc3cc(-c4cnc([C@@H]5CCCN5C(=O)[C@@H](NC(=O)OC)C(C)C)[nH]4)ccc32)[nH]1)C(C)C (some centres not stated) |  | 0.31 | 0.31 |  | 3 | 0.097 | 3 | 7 |
| COC(=O)N[C@H](C(=O)N1CCC[C@H]1c1ncc(-c2cc(F)c3c(c2)OC(c2cc(C)c(C4CC4)s2)n2c-3cc3cc(-c4cnc([C@@H]5CCCN5C(=O)[C@@H](NC(=O)OC)C(C)C)[nH]4)ccc32)[nH]1)C(C)C (some centres not stated) |  | 0.88 | 1.7 |  | 2 | 0.009 | 2 | 4 |
| COC(=O)N[C@H](C(=O)N1CCC[C@H]1c1ncc(-c2cc(F)c3c(c2)OC(c2ccc(C4CC4)s2)n2c-3cc3cc(-c4cnc([C@@H]5C[C@H]6C[C@H]6N5C(=O)[C@@H](NC(=O)OC)C(C)C)[nH]4)ccc32)[nH]1)C(C)C (some centres not stated) |  | 0.3 | 0.03 |  | 4 | 0.012 | 5 | 7 |
